Results: US6153415A, “Method for producing amide compounds using a nitrile hydratase from a thermophilic bacillus” (priority 1999, dated 2000)

T1: BR449 nitrile hydratase (Bacillus sp. BR449, UniProt Q9L541+Q9L542)
T1 construct: alpha 214 aa, beta 229 aa
T1 sequence (Q9L541 1-214): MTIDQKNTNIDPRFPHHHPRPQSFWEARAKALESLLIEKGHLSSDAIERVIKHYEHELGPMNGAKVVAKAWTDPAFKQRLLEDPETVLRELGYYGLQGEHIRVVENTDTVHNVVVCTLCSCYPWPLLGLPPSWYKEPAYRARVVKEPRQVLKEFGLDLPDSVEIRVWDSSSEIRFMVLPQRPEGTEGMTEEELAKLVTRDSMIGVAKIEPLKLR
T1 sequence (Q9L542 1-229): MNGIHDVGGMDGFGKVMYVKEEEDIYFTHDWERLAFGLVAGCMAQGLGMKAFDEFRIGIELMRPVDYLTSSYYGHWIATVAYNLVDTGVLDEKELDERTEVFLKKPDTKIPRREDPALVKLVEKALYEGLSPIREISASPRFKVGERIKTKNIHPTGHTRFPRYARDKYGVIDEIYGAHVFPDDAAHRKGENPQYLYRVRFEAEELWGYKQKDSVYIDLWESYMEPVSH

T2: hydratase of BR449 (Bacillus sp. BR449, UniProt Q9L541+Q9L542)
T2 construct: alpha 214 aa, beta 229 aa
T2 sequence (Q9L541 1-214): T1 sequence (Q9L541 1-214)
T2 sequence (Q9L542 1-229): T1 sequence (Q9L542 1-229)

B1: BR449 nitrile hydratase: cobalt-containing nitrile hydratase of Bacillus sp. BR449, alpha subunit SEQ ID NO:9, beta subunit SEQ ID NO:11 (protein)
alpha: T1 sequence (Q9L541 1-214)
beta: T1 sequence (Q9L542 1-229)

Experiments:
[1] = system: amidase; test: Effect of metal ions during growth on amidase activity of BR449; type: cell-based, Bacillus sp. BR449; settings: BR449 grown with divalent metal salt 20 mg/l
Protocol: (§1) Bacillus sp. BR449 (ATCC 202119) was grown in OP medium at pH 7.2 which contained per liter: KH2 PO4, 1 g; K2 HPO4, 0.5 g; yeast extract, 1 g; malt extract, 1 g; peptone 2 g; glycerol, 3 g; casamino acids, 0.1 g. The isolate was grown at 60° C. using turbidity to monitor culture density. Divalent metal salts were added to the growth medium where indicated in concentrations of 20 mg/l.
(§2) Nitrile hydratase activity was measured using whole cells in assays containing 20 mg (dry wt) cells, in 1 ml 0.5 M acrylonitrile and potassium phosphate buffer, containing 0.5 M acrylonitrile, pH 7.5. The reaction mixture was incubated in a water bath at 50° C. with shaking for 10 minutes, and the reaction stopped by addition of 0.2 ml 2 N HCl. Acrylamide formation was measured using HPLC by injection into a Novapak C-18 reverse phase column and eluted with 1:12 acetonitrile:5mM potassium phosphate buffer, pH 2.5. Peaks were identified at 200 nm with a Waters (Newton, Mass.) variable wavelength detector and analyzed with reference to chemical standards. One unit of nitrile hydratase activity is defined as the formation of one μmole acrylamide per minute. Amidase activity was measured in the same manner using 0.5 M acrylamide as substrate by measurement of acrylic acid formation.
(§3) Divalent metal ions were added during growth of isolate BR449 to provide indications of metals stimulatory to nitrile hydratase production.

[2] = molecular target: T1, BR449 nitrile hydratase; test: Effect of additions during growth on nitrile hydratase activity of BR449; type: cell-based; settings: for Nitrile hydratase Specific Activity: BR449 grown with divalent metal salt 20 mg/l
Protocol: as §1, §2, §3

[3] = system: Bacillus sp. BR449; test: Effect of metal ions on growth (total cells) of BR449; type: cell-based; settings: divalent metal salt 20 mg/l in growth medium
Protocol: as §1

[4] = molecular target: T2, hydratase of BR449; test: Nitrile hydratase activity with varied acrylonitrile concentration (substrate inhibition); type: biochemical; settings: 10% acrylonitrile, assay at 50° C.
Protocol: as §2, with “Nitrile hydratase activity was measured using whole cells in assays containing 20 mg (dry wt) cells, in 1 ml 0.5 M acrylonitrile and potassium phosphate buffer, containing 0.5 M acrylonitrile, pH 7.5.” left out

[5] = Enzyme stability study, whole cells incubated in buffer at varied temperatures; type: physicochemical, Bacillus sp. BR449; settings: two hour incubations in buffer, assay at 50° C.
Protocol: For studies of nitrile hydratase stability, whole cells of BR449 were incubated at varied temperatures in 50 mM potassium phosphate buffer, pH 7.5, following which the nitrile hydratase assay was carried out at 50° C.

| Molecule | Amidase Specific Activity [1] [U/mg] | Nitrile hydratase Specific Activity [2] [U/mg] | Total Cells [3] | Induction of hydratase activity ([2]; addition during BR449 growth) | inhibition of BR449 hydratase (substrate inhibition) [4] [%] | temperature to which the enzyme is stable [5] [°C] |
| --- | --- | --- | --- | --- | --- | --- |
| [Co+2] [Co^2+] | 9.7 | 71.5 | 225 mt/1, dry weight | – | – | – |
| [Cu+2] [Cu^2+] | 1.5 | 1.9 | 90 mt/1, dry weight | – | – | – |
| [Fe+2] [Fe^2+] | 2.3 | 4.3 | 490 mt/1, dry weight | – | – | – |
| [Mn+2] [Mn^2+] | 2.1 | 2.2 | 65 mt/1, dry weight | – | – | – |
| [Ni+2] [Ni^2+] | 3.4 | 6.8 | 80 mt/1, dry weight | – | – | – |
| C=CC#N [acrylonitrile] | – | – | – | without effect | 47 | – |
| B1 | – | – | – | – | – | ≤ 60 |
